Where “and” joins values, the source holds several entries; their conditions need not be identical. Identical values can stand only once.
System: 596521-263-R-J1-PDC complex spheroid growth
Assay: Anticancer human tumor 596521-263-R-J1-PDC patient-derived soft tissue sarcoma cell line growth inhibition [Asc]
Settings: for viability, T/C: stronger effect = lower value
Protocol: Multicellular complex tumor spheroid response to apoptosis pathway targeting inhibitors Alrizomadlin, Pelcitoclax, and Dasminapant in combination with a variety of drugs and investigational agents in selected tumor cell lines
The MDM2 inhibitor alrizomadlin, the Bcl-2/Bcl-xL inhibitor pelcitoclax, and the IAPs inhibitor dasminapant were evaluated both individually and in combination with standard of care and investigational anticancer small molecules within a complex spheroid model of solid tumors. . Complex spheroids include a stromal component modeled by human endothelial cells (HUVEC) and fibroblasts modeled by human mesenchymal stem cells (MSCs). The concentration ranges selected for each drug and investigational agent were based upon clinically achievable concentrations if the clinical Cmax of the agent was known.
Compounds. The drugs and investigational agents: alrizomadlin (APG-115; NSC831270), pelcitoclax (APG-1252; NSC835773), dasminapant (APG-1387;NSC834197), TAK-243 (NSC785004), copanlisib (NSC809693), olaparib (NSC753686), talazoparib (NSC767125), cobimetinib (NSC 768068), eltanexor (KPT-8602, NSC 794443), abemaciclib (NSC 768073), sotorasib (NSC818433), adagrasib (NSC 831453), MRTX-1133 (NSC 836407), Iadademestat (ORY1001, NSC 806812), and RMC-4630 (NSC839698), were obtained from the NCI Developmental Therapeutics Program Chemical Repository. The FDA-approved anticancer drug set is available from the Developmental Therapeutics Program at https://dtp.cancer.gov/organization/dscb/obtaining/available plates.htm. […] The stock solutions were prepared in dimethyl sulfoxide (DMSO, Sigma-Aldrich, St. Louis, MO, cat. D2650) at 800-fold the tested concentration and stored at -70 degrees C prior to their use. All drugs and investigational agents were tested over a range starting from a high concentration at or near the clinical Cmax and decreasing in half-log increments. If the clinical Cmax for an agent had not been determined, the highest concentration tested was 10 microM.
The patient-derived cancer (PDC) cell lines include five colon adenocarcinomas: 186277-243-T-J2-PDC, 616215-338-R-J1-PDC, 439559-082-T-J2-PDC, 463943-066-T-J2-PDC, and 519858-162-T-J1-PDC; three pancreatic carcinomas: 323965-272-R-J2-PDC, 521955-158-R6-J3-PDC, and 521955-158-R2-J5-PDC; two uterine sarcomas: 327498-152-R-J2-PDC and 993429-296-R-J1-PDC; two rhabdomyosarcomas: 755483-174-R-J1-PDC and 772245-204-R-J1-PDC; two soft tissue sarcomas: 126254-015-R-J1-PDC and 494315-158-R-J1-PDC; two malignant fibrous histiocytomas: 317291-083-R-J1-PDC and 596521-263-R-J1-PDC; two breast carcinomas: 171881-019-R-J1-PDC and 885512-296-R-J2-PDC; and one ovarian carcinoma: 6556581-035-R-J-PDC were obtained from the NCI PDMR, (https://pdmr.cancer.gov). The established cell lines HSSY-2 synovial sarcoma (RRID:CVCL 8719), SYO-1 synovial sarcoma (RRID:CVCL_7146), MPNST malignant peripheral neural sheath tumor were obtained from the Sloan Kettering Institute. The following established cell lines were purchased from the American Type Culture Collection (ATCC, Manassas, VA), Sor the received from the NCI repository:, PANC-1 pancreatic carcinoma (CRL-1469, RRID:CVCL_0480), OVCAR-5 ovarian carcinoma (RRID:CVCL_1628), OVCAR-8 ovarian carcinoma (RRID:CVCL_1629), , MCF-7 breast carcinoma (CRL-12584, RRID:CVCL_0031), MDA-MB-231 breast carcinoma (CRL-12532, RRID:CVCL_0062), NCI-H1876 small cell lung carcinoma (CRL-5902, RRID:CVCL_1503), NCI-H510A small cell lung carcinoma (HTB-184, RRID:CVCL_1565), NCI-H1417 (CRL-5869, RRID:CVCL_1469), and NCI-H196 small cell lung carcinoma (CRL-5823, RRID:CVCL_1509). Dr. Peter Houghton (Greehey Children's Cancer Research Institute, University of Texas Health Science Center, San Antonio, TX) provided Rh-18 rhabdomyosarcoma (RRID:CVCL_1659). Pooled donor human umbilical vein endothelial cells (HUVEC, Lonza, cat. CC-2519) and human mesenchymal stem cells (hMSC, Lonza, cat. PT-2501) were purchased from Lonza (Walkersville, MD).
Cell Culture. […]

[1] = compound alone, run of 11/07/2022
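Also: spheroids exposed to compounds for 7 days.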

In the case of C#Cc1c(F)ccc2cc(O)cc(-c3ncc4c(N5CC6CCC(C5)N6)nc(OCC56CCCN5CC(F)C6)nc4c3F)c12 (stereo not given), the viability, T/C (compound 0.0316 µM) is reported as 102% and 104% (2×), the viability, T/C (compound 0.1 µM) is reported as 87% and 90.2% and 98.9% and the viability, T/C (compound 0.316 µM) is reported as 99.2% and 109% and 98.2%. For the same molecule, the viability, T/C (compound 1 µM) was 102% (2×) and 112%, the viability, T/C (compound 3.16 µM) was 100% and 94.5% and 103% and the viability, T/C (compound 10 µM) was 93.4% and 85.1% and 88.1%. It also gave an IC50 (curve of compound) greater than 10000 nM.

C=C(F)C(=O)N1CCN(c2nc(OCC3CCCN3C)nc3c2CCN(c2cccc4cccc(Cl)c24)C3)CC1CC#N (stereo not given) was tested, and the viability, T/C (compound 0.0316 µM) was 95.8% and 100%, the viability, T/C (compound 0.1 µM) was 100% and 95.2% and the viability, T/C (compound 0.316 µM) was 98.3% and 103%. For the same molecule, the viability, T/C (compound 1 µM) was 99.6% and 123%, the viability, T/C (compound 3.16 µM) was 89.5% and 80.2% and the viability, T/C (compound 10 µM) was 0.48% and 3.4%. For the same molecule, the IC50 (curve of compound) was 5270 nM and 4970 nM.

With C=CC(=O)N1CCN(c2nc(=O)n(-c3c(C)ccnc3C(C)C)c3nc(-c4c(O)cccc4F)c(F)cc23)C(C)C1 (stereo not given) the viability, T/C (compound 0.0316 µM) was 93.6% and 91.4%, the viability, T/C (compound 0.1 µM) was 101% and 93.4% and the viability, T/C (compound 0.316 µM) was 97.6% and 109%. The viability, T/C (compound 1 µM) was 108% and 112%, the viability, T/C (compound 3.16 µM) was 96.7% and 107% and the viability, T/C (compound 10 µM) was 78% and 88.9%. For the same molecule, the IC50 (curve of compound) was greater than 10000 nM.

For CCN1C(C(=O)NC23CCC(C(=O)O)(CC2)CC3)C(c2cccc(Cl)c2F)C2(C(=O)Nc3cc(Cl)ccc32)C12CCCCC2 (stereo not given), the viability, T/C (compound 0.00949 µM) was 103% [middle of 8 runs], the viability, T/C (compound 0.03 µM) was 101% [middle of 8 runs] and the viability, T/C (compound 0.0949 µM) was 103% [middle of 8 runs]. For the same molecule, the viability, T/C (compound 0.3 µM) was 105% [middle of 8 runs], the viability, T/C (compound 0.949 µM) was 102% [middle of 8 runs] and the viability, T/C (compound 3 µM) was 95.7% [middle of 8 runs]. The IC50 [1] was greater than 3000 nM and the IC50 (curve of compound) was greater than 3000 nM.

With CCN1CCN(Cc2ccc(Nc3ncc(F)c(-c4cc(F)c5nc(C)n(C(C)C)c5c4)n3)nc2)CC1 the viability, T/C (compound 0.00316 µM) was 99.1% and 89.3% and 99.2%, the viability, T/C (compound 0.01 µM) was 103% and 87.3% and 82% and the viability, T/C (compound 0.0316 µM) was 96.3% and 101% and 86.1%. For the same molecule, the viability, T/C (compound 0.1 µM) was 97.9% and 93.3% and 105%, the viability, T/C (compound 0.316 µM) was 96.8% and 101% and 92% and the viability, T/C (compound 1 µM) was 79.4% and 77.1% and 87.2%. For the same molecule, the IC50 (curve of compound) was greater than 1000 nM.

CNC(C)C(=O)NC1CN(S(=O)(=O)c2cccc(S(=O)(=O)N3CCC4CCC(C(=O)NC(c5ccccc5)c5ccccc5)N4C(=O)C(NC(=O)C(C)NC)C3)c2)CCC2CCC(C(=O)NC(c3ccccc3)c3ccccc3)N2C1=O (stereo not given) was tested, and the viability, T/C (compound 0.0316 µM) was 89.6% [middle of 6 runs], the viability, T/C (compound 0.1 µM) was 87.5% [middle of 6 runs] and the viability, T/C (compound 1 µM) was 77.4% [middle of 6 runs]. For the same molecule, the IC50 (curve of compound) was greater than 1000 nM.

With COc1c(OCCCN2CCOCC2)ccc2c3n(c(=NC(=O)c4cnc(N)nc4)nc12)CCN3 the viability, T/C (compound 0.00316 µM) was 98.3% and 95.9%, the viability, T/C (compound 0.01 µM) was 88% and 87.8% and the viability, T/C (compound 0.0316 µM) was 71.1% and 82.2%. The viability, T/C (compound 0.1 µM) was 68% and 61.7%, the viability, T/C (compound 0.316 µM) was 44.1% and 40% and the viability, T/C (compound 1 µM) was 31.9% and 28.1%. For the same molecule, the IC50 (curve of compound) was 254 nM and 188 nM.

Cc1c(S(C)(=O)=O)c(-c2cc(F)cc(N3CCN(c4ccc(NS(=O)(=O)c5ccc(NC(CCN6CCC(C(=O)OCCCP(=O)(O)O)CC6)CSc6ccccc6)c(S(=O)(=O)C(F)(F)F)c5)cc4)CC3)c2)c(-c2ccc(Cl)cc2)n1C(C)C (stereo not given) was tested, and the viability, T/C (compound 0.0316 µM) was 101% [middle of 7 runs], the viability, T/C (compound 0.1 µM) was 93.1% [middle of 7 runs] and the viability, T/C (compound 0.316 µM) was 91.5% [middle of 7 runs]. For the same molecule, the viability, T/C (compound 1 µM) was 77.7% [middle of 7 runs], the viability, T/C (compound 3.16 µM) was 63% [middle of 7 runs] and the viability, T/C (compound 10 µM) was 55.6% [middle of 7 runs]. The IC50 [1] was greater than 10000 nM.

With Cc1nc(N2CCC3(CC2)COC(C)C3N)c(CO)nc1Sc1ccnc(N)c1Cl (stereo not given) the viability, T/C (compound 0.00949 µM) was 92.9% and 104% and 105%, the viability, T/C (compound 0.03 µM) was 105% and 93.2% and 112% and the viability, T/C (compound 0.0949 µM) was 95.7% and 91.3% and 95.2%. For the same molecule, the viability, T/C (compound 0.3 µM) was 96.7% and 100% and 87%, the viability, T/C (compound 0.949 µM) was 88.2% and 85.2% and 73.8% and the viability, T/C (compound 3 µM) was 64.9% and 62.4% and 62.7%. The IC50 (curve of compound) was greater than 3000 nM.

Cn1ncnc1[C@H]1c2n[nH]c(=O)c3cc(F)cc(c23)N[C@@H]1c1ccc(F)cc1 was tested, and the viability, T/C (compound 0.000316 µM) was 95.5% and 111% and 105%, the viability, T/C (compound 0.001 µM) was 101% and 97% and 98.5% and the viability, T/C (compound 0.00316 µM) was 97.5% and 93.9% and 87.1%. The viability, T/C (compound 0.01 µM) was 87.1% and 98% and 103%, the viability, T/C (compound 0.0316 µM) was 105% and 96.6% and 94.3% and the viability, T/C (compound 0.1 µM) was 79.6% and 84.5% and 82.6%. For the same molecule, the IC50 (curve of compound) was greater than 100 nM.

With NC(=O)C(=Cn1cnc(-c2cc(C(F)(F)F)cc(C(F)(F)F)c2)n1)c1cncnc1 the viability, T/C (compound 0.000949 µM) was 104% and 98.5% and 48.5%, the viability, T/C (compound 0.003 µM) was 91.6% and 94.9% and 49.6% and the viability, T/C (compound 0.00949 µM) was 87.5% and 83.8% and 46.9%. The viability, T/C (compound 0.03 µM) was 58.5% and 51.1% and 32.2%, the viability, T/C (compound 0.0949 µM) was 18.1% and 18.5% and 16.5% and the viability, T/C (compound 0.3 µM) was 11.2% and 10.3% and 10%.

For NC1CCC(NC2CC2c2ccccc2)CC1 (stereo not given), the viability, T/C (compound 0.000316 µM) was 92.5% and 90.7%, the viability, T/C (compound 0.001 µM) was 87% and 79.9% and the viability, T/C (compound 0.00316 µM) was 90% and 91.5%. For the same molecule, the viability, T/C (compound 0.01 µM) was 95.4% and 94.3%, the viability, T/C (compound 0.0316 µM) was 99.2% and 85.7% and the viability, T/C (compound 0.1 µM) was 88.1% and 89.4%. It also gave an IC50 (curve of compound) greater than 100 nM.

With O=C(c1cc(Cc2n[nH]c(=O)c3ccccc23)ccc1F)N1CCN(C(=O)C2CC2)CC1 the viability, T/C (compound 0.0316 µM) was 102% and 103% and 85.9%, the viability, T/C (compound 0.1 µM) was 101% (2×) and 93.1% and the viability, T/C (compound 0.316 µM) was 94.2% and 92.7% and 111%. For the same molecule, the viability, T/C (compound 1 µM) was 90.9% and 103% and 93.6%, the viability, T/C (compound 3.16 µM) was 89.6% and 92.4% and 71.7% and the viability, T/C (compound 10 µM) was 59.9% and 61.9% and 50.4%. It also gave an IC50 (curve of compound) greater than 10000 nM.

In the case of O=C(c1ccc(F)c(F)c1Nc1ccc(I)cc1F)N1CC(O)([C@@H]2CCCCN2)C1, the viability, T/C (compound 0.00316 µM) is reported as 107% and 99.7% and 89.7%, the viability, T/C (compound 0.01 µM) is reported as 95.2% and 94.7% and 92% and the viability, T/C (compound 0.0316 µM) is reported as 98.4% and 88.8% and 92.9%. For the same molecule, the viability, T/C (compound 0.1 µM) was 75.9% and 77.3% and 84.2%, the viability, T/C (compound 0.316 µM) was 50.1% and 56% and 54.9% and the viability, T/C (compound 1 µM) was 34.9% and 49.8% and 34%. The IC50 (curve of compound) was 314 nM and 867 nM and 412 nM.
